Data published in patent US20070254914A1, “Low-concentration atropine solution for preventing myopia progression and preparing method thereof” (Non-Profit Organization Chang Gung Memorial Hospital, priority 2006, published 2007).
Structures can show the parent of a compound that is named as a salt. Where two headings read alike, the source gives them in different places.

Experiments:
[1] = system: mydriasis phenomenon; assay: durations of mydriasis phenomenon in administration of different ingredients for preventing myopia progression; assay type: in vivo, human
[2] = system: patients (pupil diameter); assay: mydriasis phenomenon (pupil diameter) after administration of different atropine concentrations; assay type: in vivo, human
[3] = system: patients (photophobia); assay: photophobia ratios with administration of different atropine concentrations; assay type: in vivo, human
Text: According to following Table 6, patients treated with 0.05% (w/w) atropine solution suffered the photophobia in a lower ratio in comparison with ones treated with 0.1% (w/w) atropine solution.

[4] = system: patients (myopia progression); assay: study of the present invention in 2006: myopia progression in patients treated with 0.05% atropine solution; assay type: in vivo, human; conditions: for Increased diopter (D) per year: 0.05% (w/w) atropine solution
Text: With regard to Table 2, 21 patients (42 eyes) were subject in the treatment group and 36 patients were subject in the control group. All patients are residents in southern Taiwan. Male-female ratios in the treatment group and the control group were respectively 12:9 and 18:18.
Wherein, an average age in the treatment group was 8.38±1.47 years old (range from 6 to 12 years old) and an average age in the control group was 8.11±1.12 years old (range from 6 to 12 years old).
Treating periods of the treatment group and the control group in average are respectively 19.95±9.04 months and 21.47±10.02.

[5] = system: patients (accommodation capability of eyes); assay: influences on accommodation capability with administration of different atropine concentrations; assay type: in vivo, human
Description: Moreover, the myopia exacerbation also substantially relates to visual distance during near working that the patient continuously overuses high accommodation capability of eyes.
With regard to Table 4, 21 patients were treated with 0.05% (w/w) atropine solution in a first treatment group, 9 patients were treated with 0.1% (w/w) atropine solution in a second treatment group and 6 patients were treated with blank solution in the control group. Male-female ratios in the treatment groups and the control group were respectively […] in the first treatment group, 5:4 in the second treatment group and 3:3 in the control group.
Wherein, average ages were respectively 9.4±1.7 years old in the first treatment group, 11±1.7 years old in the second treatment group and 10±2 years old in the control group.
Treating periods of the treatment groups in average were respectively 22.43±12.9 months in the first treatment group and 25.88±12.47 months in the second treatment group.
Observation timing after applying the atropine solutions were respectively 16.37±2.53 hours in the first treatment group and 17.11±1.9 hours in the second treatment group.

[6] = system: Myopic Children; conditions: Shin's study 1999, cited from earlier work
[7] = marketed concentrations as listed in Table 7 (Soln/Ointment 0.5%-3%)

CN1[C@@H]2CC[C@H]1C[C@@H](OC(=O)C(CO)c1ccccc1)C2 (stereo partly shown) [Atropine sulfate]
Occurring time (mydriasis) ([1]; Soln, 0.05%): 45 to 120 min | Duration of mydriasis ([1]; Soln, 0.05% (w/w)): 0.5 to 0.75 days | Duration of mydriasis [1, 7]: 7 to 14 days | Occurring time (mydriasis) [1, 7]: 45 to 120 min

CN1[C@@H]2CC[C@H]1C[C@@H](OC(=O)C(CO)c1ccccc1)C2 (stereo partly shown) [Atropine, atropine]
Pupil diameter ([2]; 0.05% atropine solution): 5.52 mm | Pupil diameter ([2]; 0.1% atropine solution): 6.10 mm | Photophobia ratio ([3]; 0.05% atropine solution): 66.67% | Photophobia ratio ([3]; 0.1% atropine solution): 85.71% | Increased diopter (D) per year ([4]; 1st (yearly follow-up)): 0.34(D/yr) | Increased diopter (D) per year ([4]; 2nd (yearly follow-up)): 0.32(D/yr) | Increased diopter (D) per year ([4]; 3rd (yearly follow-up)): 0.14(D/yr) | Increased diopter (D) per year ([4]; All (average)): 0.29(D/yr) | Myopia progression ([4]; 0.05% atropine solution, 21 patients (42 eyes), 6 to 12 years old, treating period 19.95±9.04 months): 0.28(diopter/yr) | Accommodation capability ([5]; 0.05% atropine solution, observed 16.37±2.53 hours after applying, treating period 22.43±12.9 months): 2.45(D) | Accommodation capability ([5]; 0.1% atropine solution, observed 17.11±1.9 hours after applying, treating period 25.88±12.47 months): 2.22(D) | Myopia progression ([6]; 0.1% atropine solution): 0.47 diopter/yr | Myopia progression ([6]; 0.25% atropine solution): 0.45 diopter/yr | Myopia progression ([6]; 0.5% atropine solution): 0.04 diopter/yr | Duration of mydriasis ([1]; 1% (w/w) atropine solution): 7 to 14 days | Duration of mydriasis ([1]; Soln, 0.05% (w/w), listed as atropine): 0.5 to 0.75 days

CN(C)CCOC(=O)C(c1ccccc1)C1(O)CCCC1 (stereo not shown) [Cyclopentolate Hydrochloride]
Duration of mydriasis ([1]; human, in vivo): 2 days | Occurring time (mydriasis) ([1]; human, in vivo): 30 to 60 min
